Assay results as given in US11498923B2 (Merck Sharp & Dohme Corp., priority 2017, dated 2022).
Where a name gives a salt, the structure may show the parent alone.

Target: T1, human A2a receptor (Homo sapiens, UniProt P29274)
T1 construct: purchased Perkin-Elmer RBHA2AM400UA; host or cells: HEK293 cells, used as a membrane preparation
Assay: A2a receptor competition binding assay (Scintillation Proximity)
Details: membranes from HEK293 cells expressing human A2a receptor; 0.5 nM tritiated ligand; Cheng-Prusoff; read-out: A2a Ki
Protocol: Binding affinities of compounds of the invention for the human A2a receptor were determined in a competition binding assay using Scintillation Proximity technology. Thus, 0.3 μg of membranes from HEK293 cells expressing the human A2a receptor were incubated with a compound of the invention at concentrations ranging from 3000 nM to 0.15 nM in a reaction mixture containing also 0.5 nM of a tritiated form of 5-amino-7-[2-phenethyl]-2-(furan-2-yl)-7H-pyrazolo[4,3-e][1,2,4]triazolo[1,5-c]pyrimidine (the tritiated compound) and 100 μg of wheat germ agglutin-coated yttrium silicate SPA beads for one hour at room temperature with agitation. The beads were then allowed to settle to the bottom of the wells for 1 hr, after which the membrane-associated radioactivity was determined by scintillation counting in a TopCount microplate reader. Ki values were determined using the Cheng-Prusoff equation.
Summary of Materials and Methods Used in A2a Activity Determination:
HEK293 cells expressing the human, rat, dog or monkey adenosine 2a receptor (Purchased from Perkin-Elmer #RBHA2AM400UA).
The Tritiated compound was prepared according to published methods.
Wheat germ agglutinin-coated yttrium silicate SPA beads (GE Healthcare #RPNQ0023). Dilute to 25 mg/ml in assay buffer.
Assay Buffer was prepared using Dulbecco's calcium and magnesium free phosphate buffered saline+10 mMMgCl2
Adenosine deaminase from calf intestine, 10 mg/2 ml (Roche #10 102 105 001).
A2a antagonist standard (9-chloro-1-(2-furanyl)-[1,2,4]triazolo1,5-c]quinazolin-5-amine from Tocris Bioscience)
Make eight 1:3 serial dilutions in 100% DMSO from a 3 mM compound stock
Transfer 50 nl of compound into a 384-well OptiPlate (Perkin Elmer).
Typically, final concentrations of compound used in the assay ranged from 3000 nM to 0.152 nM.
Dilute a solution of the Tritiated compound to 1.25 nM in assay buffer. This is a 2.5× solution. The final concentration in the assay is 0.5 nM. Calculate the concentration by counting two 5 μl aliquots.
Use 0.25 ug of membrane/well. Dilute membranes to 9.7 μg/ml in assay buffer. Treat with 20 ug/ml adenosine deaminase (ADA) for 15 minutes at room temperature to degrade endogenous adenosine.
Use 100 μg/well wheat germ agglutinin-coated yttrium silicate SPA beads.
Mix ADA-treated membranes and SPA beads together for 30 min prior to assay.
To the Perkin-Elmer Optiplate-384 containing the compound titration add 20 μl of 2.5× solution of the Tritiated compound and 30 μl of the membrane-bead mixture. Incubate for one hour at room temperature with agitation.
Include total binding (assay buffer+1% DMSO) and non-specific binding (CGS15943, 1 μM) wells.
Allow the beads to settle for one hour.
A curve fitting program (i.e., Prism, Activity Base, Chemcart) is used to determine the EC50. The Ki value is calculated using the Cheng-Prusoff equation. Ki=EC50/(1+(radioligand concentration/Kd))

T1 sequence (P29274 whole entry): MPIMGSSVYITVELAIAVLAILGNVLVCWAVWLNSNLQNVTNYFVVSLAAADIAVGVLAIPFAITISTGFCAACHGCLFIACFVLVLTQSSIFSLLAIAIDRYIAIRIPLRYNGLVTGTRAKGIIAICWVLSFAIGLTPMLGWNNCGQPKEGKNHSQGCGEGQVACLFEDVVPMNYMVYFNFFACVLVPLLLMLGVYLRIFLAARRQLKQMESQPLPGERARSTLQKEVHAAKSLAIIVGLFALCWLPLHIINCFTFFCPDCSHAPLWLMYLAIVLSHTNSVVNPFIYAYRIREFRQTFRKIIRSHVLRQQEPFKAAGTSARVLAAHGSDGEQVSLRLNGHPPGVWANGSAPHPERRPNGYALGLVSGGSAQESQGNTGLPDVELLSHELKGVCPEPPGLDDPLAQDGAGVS

Nc1nc2c(F)cccc2c2nc(Cc3cccc(-c4ccc5nonc5c4)c3)cn12 [Ex-77, 2-(3-(benzo[c][1,2,5]oxadiazol-5-yl)benzyl)-7-fluoroimidazo[1,2-c]quinazolin-5-amine]
Ki: 12 nM

COc1ccc(-c2ccc(Cc3cn4c(N)nc5c(F)cccc5c4n3)cc2)cc1 [Ex-78, 7-fluoro-2-((4′-methoxy-[1,1′-biphenyl]-4-yl)melhyl)imidazo[1,2-c]quinazolin-5-amine]
Ki: 120 nM

COc1cccc2c1nc(N)n1cc(Cc3c(F)cccc3-c3ccc(C(F)(F)F)nc3)nc21 [Ex-79, 2-(2-fluoro-6-(6-(trifluoromethyl)pyridin-3-yl)benzyl)-7-methoxyimidazo[1,2-c]quinazolin-5-amine]
Ki: 2.4 nM

COc1cccc2c1nc(N)n1cc(Cc3cccnc3-c3cncnc3)nc21 [Ex-80, 7-methoxy-2-((2-(pyrimidin-5-yl)pyridin-3-yl)methyl)imidazo[1,2-c]quinazolin-5-amine]
Ki: 11 nM

Nc1nc2c(F)cccc2c2nc(Cc3cc(F)ccc3-c3cncnc3)cn12 [Ex-81, 7-fluoro-2-(5-fluoro-2-(pyrimidin-5-yl)benzyl)imidazo[1,2-c]quinazolin-5-amine]
Ki: 14 nM

Nc1nc2c(F)cccc2c2nc(Cc3ccc(-c4cnccn4)cc3)cn12 [Ex-82, 7-fluoro-2-(4-(pyrazin-2-yl)benzyl)imidazo[1,2-c]quinazolin-5-amine]
Ki: 27 nM

Nc1nc2c(F)cccc2c2nc(Cc3cc(F)ccc3-c3ccnc(N4CCOCC4)c3)cn12 [Ex-83]
Ki: 6.9 nM

Nc1nc2c(F)cccc2c2nc(Cc3ccc(C(=O)Nc4ccccn4)cc3)cn12 [Ex-84, 4-((5-amino-7-fluoroimidazo[1,2-c]quinazolin-2-yl)methyl)-N-(pyridin-2-yl)benzamide]
Ki: 3.8 nM

Nc1nc2c(F)cccc2c2nc(Cc3cccc(C(=O)Nc4ccccn4)c3)cn12 [Ex-85, 3-((5-amino-7-fluoroimidazo[1,2-c]quinazolin-2-yl)methyl)-N-(pyridin-2-yl)benzamide]
Ki: 9.7 nM

Cn1c(NC(=O)c2ccc(Cc3cn4c(N)nc5c(F)cccc5c4n3)cc2)nc2ccccc21 [Ex-86, 5-amino-7-fluoro-2-(4-((1-methyl-1H-benzo[d]imidazol-2-yl)carbamoyl)benzyl)imidazo[1,2-c]quinazolin-6-ium formate]
Ki: 44 nM

Nc1nc2c(F)cccc2c2nc(Cc3ccc(C(=O)NC4(c5ccccc5)CC4)cc3)cn12 [Ex-87, 4-((5-amino-7-fluoroimidazo[1,2-c]quinazolin-2-yl)methyl)-N-(1-phenylcyclopropyl)benzamide]
Ki: 40 nM

Nc1nc2c(F)cccc2c2nc(Cc3ccc(C(=O)NCC(c4cccnc4)N4CCOCC4)cc3)cn12 (centres unmarked) [Ex-88, 4-((5-amino-7-fluoroimidazo[1,2-c]quinazolin-2-yl)methyl)-N-(2-morpholino-2-(pyridin-3-yl)ethyl)benzamide]
Ki: 84 nM

COc1cccc2c1nc(N)n1cc(Cc3ccc(C(=O)Nc4ccccc4)cc3)nc21 [Ex-89, 4-((5-amino-7-methoxyimidazo[1,2-c]quinazolin-2-yl)methyl)-N-phenylbenzamide]
Ki: 6.3 nM

Nc1nc2c(F)cccc2c2nc(Cc3ccc(C(=O)NCCN4CCOCC4)cc3)cn12 [Ex-90, 4-((5-amino-7-fluoroimidazo[1,2-c]quinazolin-2-yl)methyl)-N-(2-morpholinoethyl)benzamide]
Ki: 66 nM

Nc1nc2c(F)cccc2c2nc(Cc3ccc(-c4nnc(CN5CCOCC5)o4)cc3)cn12 [Ex-91, 7-fluoro-2-(4-(5-(morpholinomethyl)-1,3,4-oxadiazol-2-yl)benzyl)imidazo[1,2-c]quinazolin-5-amine]
Ki: 65 nM

Nc1nc2c(F)cccc2c2nc(Cc3cccc4c3OCCN4C(=O)Cc3ccccn3)cn12 [Ex-92, 1-(8-((5-amino-7-fluoroimidazo[1,2-c]quinazolin-2-yl)methyl)-2,3-dihydro-4H-benzo[b][1,4]oxazin-4-yl)-2-(pyridin-2-yl)ethan-1-one]
Ki: 13 nM

COc1ccc(-c2cn(Cc3cn4c(N)nc5c(OC)cccc5c4n3)nn2)cc1 [Ex-93, 7-methoxy-2-((4-(4-methoxyphenyl)-1H-1,2,3-triazol-1-yl)methyl)imidazo[1,2-c]quinazolin-5-amine]
Ki: 2.5 nM

Nc1nc2c(F)cccc2c2nc(Cn3cc(-c4cc(C(F)(F)F)cc(C(F)(F)F)c4)nn3)cn12 [Ex-94, 2-((4-(3,5-bis(trifluoromethyl)phenyl)-1H-1,2,3-triazol-1-yl)methyl)-7-fluoroimidazo[1,2-c]quinazolin-5-amine]
Ki: 150 nM

Nc1nc2c(F)cccc2c2nc(Cn3cc(-c4ccc(OC(F)(F)F)cc4)nn3)cn12 [Ex-95, 7-fluoro-2-((4-(4-(trifluoromethoxy)-phenyl)-1H-1,2,3-triazol-1-yl)methyl)-imidazo[1,2-c]-quinazolin-5-amine]
Ki: 6.8 nM

Nc1nc2c(F)cccc2c2nc(Cn3cc(-c4cccnc4)nn3)cn12 [Ex-96, 7-fluoro-2-((4-(pyridin-3-yl)-1H-1,2,3-triazol-1-yl)methyl)imidazo[1,2-c]quinazolin-5-amine]
Ki: 36 nM

COc1ccc(N2CCN(CCc3cn(Cc4cn5c(N)nc6c(F)cccc6c5n4)nn3)CC2)cc1 [Ex-97, 7-fluoro-2-((4-(2-(4-(4-methoxyphenyl)piperazin-1-yl)ethyl)-1H-1,2,3-triazol-1-yl)methyl)imidazo[1,2-c]quinazolin-5-amine]
Ki: 96 nM

Nc1nc2c(F)cccc2c2nc(Cn3cc(-c4ccc(-c5cccnc5)cc4)nn3)cn12 [Ex-98, 7-fluoro-2-((4-(4-(pyridin-3-yl)phenyl)-1H-1,2,3-triazol-1-yl)methyl)imidazo[1,2-c)quinazolin-5-amine]
Ki: 6.7 nM

COc1cccc2c1nc(N)n1cc(Cn3cc(COC(C)=O)nn3)nc21 [Ex-99, (1-((5-amino-7-methoxyimidazo[1,2-c]quinazolin-2-yl)methyl)-1H-1,2,3-triazol-4-yl)methyl acetate]
Ki: 11.2 nM

Nc1nc2c(F)cccc2c2nc(CCc3ccccc3)cn12 [Ex-100, 7-fluoro-2-phenethylimidazo[1,2-c]quinazolin-5-amine]
Ki: 4.4 nM

Nc1nc2c(F)cccc2c2nc(CCc3ccccn3)cn12 [Ex-101, 7-fluoro-2-(2-(pyridin-2-yl)ethyl)imidazo[1,2-c]quinazolin-5-amine]
Ki: 8.5 nM

COc1cccc2c1nc(N)n1cc(CCc3ccccc3)nc21 [Ex-102, 7-methoxy-2-phenethylimidazo[1,2-c]quinazolin-5-amine]
Ki: 3.8 nM

COc1cccc2c1nc(N)n1cc(C(=O)c3ccccc3)nc21 [Ex-103, (5-amino-7-methoxyimidazo[1,2-c]quinazolin-2-yl)(phenyl)methanone]
Ki: 26.4 nM

Nc1nc2ccccc2c2nc(-c3ccc(Br)cc3)cn12 [Ex-104, 2-(4-bromophenyl)imidazo[1,2-c]quinazolin-5-amine]
Ki: 407 nM

Nc1nc2ccccc2c2nc(-c3cccc(Br)c3)cn12 [Ex-105, 2-(3-bromophenyl)imidazo[1,2-c]quinazolin-5-amine]
Ki: 160 nM

Nc1nc2c(F)cccc2c2nc(-c3ccccc3)cn12 [Ex-106, 7-fluoro-2-phenylimidazo[1,2-c]quinazolin-5-amine]
Ki: 7.1 nM

Nc1nc2c(F)cccc2c2nc(-c3ccccc3CO)cn12 [Ex-107, (2-(5-amino-7-fluoroimidazo[1,2-c]quinazolin-2-yl)phenyl)methanol]
Ki: 4.3 nM

CS(=O)(=O)Nc1nc2c(F)cccc2c2nc(-c3ccccc3CN3CCN(c4ccccn4)CC3)cn12 [Ex-108, N-(7-fluoro-2-(2-((4-(pyridin-2-yl)piperazin-1-yl)methyl)-phenyl)-imidazo[1,2-c]-quinazolin-5-yl)-methanesulfonamide]
Ki: 130 nM

CC1(O)CCN(Cc2cn3c(N)nc4ccccc4c3n2)CC1 [Ex-109, 1-((5-aminoimidazo[1,2-c]quinazolin-2-yl)methyl)-4-methylpiperidin-4-ol]
Ki: 2460 nM

COc1cccc2c1nc(N)n1cc(CN3CCN(c4ccccc4)CC3)nc21 [Ex-110, 7-methoxy-2-((4-phenylpiperazin-1-yl)methyl)imidazo[1,2-c]quinazolin-5-amine]
Ki: 53.2 nM

Nc1nc2c(F)cccc2c2nc(CN3CCN(Cc4ccccc4)CC3)cn12 [Ex-111, 2-((4-benzylpiperazin-1-yl)methyl)-7-fluoroimidazo[1,2-c]quinazolin-5-amine]
Ki: 160 nM
